Measured values taken from ChEMBL document CHEMBL1151997, “Structural analogues of the michellamine anti-HIV agents. Importance of the tetrahydroisoquinoline rings for biological activity” (Bioorg Med Chem Lett, 1997).

How the values were obtained:
[1] = tested on: Human immunodeficiency virus 1; assay: In vitro anti-HIV-1 activity in CEM-SS cytoprotection assay; No activity.; assay type: functional, organism-based
[2] = tested on: CEM-SS; assay: In vitro cytotoxicity in CEM-SS cell line up to a concentration of 100 uM.; assay type: functional, cell-based; conditions: Homo sapiens

| Structure (SMILES) | EC50 [1] | IC50 [2] |
| --- | --- | --- |
| COc1cccc2c(-c3ccccc3)cc(-c3cc(-c4ccccc4)c4cccc(OC)c4c3O)c(O)c12 | Not Active | > 100 µM |
| COc1cc(C)cc2c(-c3ccc4c(c3)OCO4)cc(-c3cc(-c4ccc5c(c4)OCO5)c4cc(C)cc(OC)c4c3O)c(O)c12 | Not Active | > 100 µM |
| COc1cc(OC)c2c(O)c(-c3cc(-c4ccc(O)cc4O)c4cc(OC)cc(OC)c4c3O)cc(-c3ccc(O)cc3O)c2c1 | Not Active | 3.9 µM |
| COc1cc(OC)c2c(O)c(-c3cc(-c4ccc5c(c4)OCO5)c4cc(OC)cc(OC)c4c3O)cc(-c3ccc4c(c3)OCO4)c2c1 | Not Active | > 100 µM |
| COc1cccc2c(-c3cccc(N)c3)cc(-c3cc(-c4cccc(N)c4)c4cccc(OC)c4c3O)c(O)c12 | Not Active | > 100 µM |
| COc1cc(OC)c2c(O)c(-c3cc(-c4cccc([N+](=O)[O-])c4)c4cc(OC)cc(OC)c4c3O)cc(-c3cccc([N+](=O)[O-])c3)c2c1 | Not Active | > 100 µM |
| COc1cc(OC)c2c(O)c(-c3cc(-c4cccc(N)c4)c4cc(OC)cc(OC)c4c3O)cc(-c3cccc(N)c3)c2c1 | Not Active | > 100 µM |
| COc1cccc2c(-c3cccc([N+](=O)[O-])c3)cc(-c3cc(-c4cccc([N+](=O)[O-])c4)c4cccc(OC)c4c3O)c(O)c12 | Not Active | > 100 µM |
| COc1cc(C)cc2c(-c3cccc([N+](=O)[O-])c3)cc(-c3cc(-c4cccc([N+](=O)[O-])c4)c4cc(C)cc(OC)c4c3O)c(O)c12 | Not Active | > 100 µM |
| COc1cc(OC)c2c(O)c(-c3cc(-c4ccccc4)c4cc(OC)cc(OC)c4c3O)cc(-c3ccccc3)c2c1 | Not Active | > 100 µM |
| COc1cc(C)cc2c(-c3cccc(N)c3)cc(-c3cc(-c4cccc(N)c4)c4cc(C)cc(OC)c4c3O)c(O)c12 | Not Active | > 100 µM |
| COc1cc(C)cc2c(-c3ccccc3)cc(-c3cc(-c4ccccc4)c4cc(C)cc(OC)c4c3O)c(O)c12 | Not Active | > 100 µM |

Further lines, with some results ahead:

| EC50 [1] | Structure (SMILES) | IC50 [2] |
| --- | --- | --- |
| Not Active | COc1cccc2c(-c3ccc(O)cc3O)cc(-c3cc(-c4ccc(O)cc4O)c4cccc(OC)c4c3O)c(O)c12 | 2.2 µM |
| Not Active | COc1cc(C)cc2c(-c3cccs3)cc(-c3cc(-c4cccs4)c4cc(C)cc(OC)c4c3O)c(O)c12 | > 100 µM |
| Not Active | COc1cc(C)cc2c(-c3ccc(O)cc3O)cc(-c3cc(-c4ccc(O)cc4O)c4cc(C)cc(OC)c4c3O)c(O)c12 | 2.6 µM |
| Not Active | COc1cccc2c(-c3ccc4c(c3)OCO4)cc(-c3cc(-c4ccc5c(c4)OCO5)c4cccc(OC)c4c3O)c(O)c12 | > 100 µM |
| Not Active | COc1cccc2c(-c3cccs3)cc(-c3cc(-c4cccs4)c4cccc(OC)c4c3O)c(O)c12 | > 100 µM |
| Not Active | COc1cc(OC)c2c(O)c(-c3cc(-c4cccs4)c4cc(OC)cc(OC)c4c3O)cc(-c3cccs3)c2c1 | > 100 µM |
